{"source": "patent US20220401428A1", "about": "“Method for Treatment of Alzheimer's Disease” (University of Kentucky Research Foundation, priority 2019, published 2022)", "key": {"[1]": {"settings": "reference 24; cited from earlier work"}, "[2]": {"test_system": "ADHIP rats", "assay": "Hypoxia markers in brain and brain capillary lysates of sEHi-treated ADHIP rats", "type": "in vivo, rat", "settings": "treated vs untreated, HIF-1α, HIF-2α, Arg-1, Arg-2, arginase activity, mitochondrial DNA", "description": "Pharmacological treatment on animals To increase plasma eicosanoids levels, the animals were treated with TPPU (1-Trifluoromethoxyphenyl-3-(1-propionylpiperidin-4-yl) urea, N-[1-(1-Oxopropyl)-4-piperidinyl]-N′-[4-(trifluoromethoxy)phenyl]-urea), a soluble epoxide hydrolase inhibitor (sEHi) (HY-101294, MedChem Express). […] 12 months old (n=5; early-stage) and 16 months old (n=6; late stage) animals were subjected to treatment with sEHi. For treatment at early-stage, the drug was administered through drinking water (3 mg/L, daily) and intravenous injection (20 μg/kg, once a week) to ensure equal intake for each animal. […] Amount of water intake was measured daily. […]\nEnzyme-linked immune absorbance assay (ELISA) Levels of amylin in human brain samples were measured using sandwich amylin ELISA from Millipore (EZHA-52K). Levels of amylin in human CSF and animal samples were measured using amylin sandwich ELISA from R&D system (EIA-AMY). Aβ levels in animal CSF were measured using high sensitivity electrochemiluminescence ELISA (MSD 6E10, K15200G-2, Meso Scale Discovery). […]\nArginase activity Arginase activity in rat brain capillaries were measured using arginase activity kit (MAK112, Sigma). […]\nMitochondria DNA extraction and analysis Protocol for quantifying mitochondrial DNA content was described in Ref 32. […] DNA purity was assessed by ensuring the A260/A280 ratio was >1.8. […]"}, "[3]": {"test_system": "ADHIP rats", "assay": "Histology and immunohistochemistry of brains of sEHi-treated ADHIP rats", "type": "in vivo, rat", "settings": "treated vs untreated; for extent of axonal degeneration: MBP and LFB staining; for amylin deposition in brain capillaries: immunohistochemical analysis", "description": "Pharmacological treatment on animals To increase plasma eicosanoids levels, the animals were treated with TPPU (1-Trifluoromethoxyphenyl-3-(1-propionylpiperidin-4-yl) urea, N-[1-(1-Oxopropyl)-4-piperidinyl]-N′-[4-(trifluoromethoxy)phenyl]-urea), a soluble epoxide hydrolase inhibitor (sEHi) (HY-101294, MedChem Express). […] 12 months old (n=5; early-stage) and 16 months old (n=6; late stage) animals were subjected to treatment with sEHi. For treatment at early-stage, the drug was administered through drinking water (3 mg/L, daily) and intravenous injection (20 μg/kg, once a week) to ensure equal intake for each animal. For treatment at late-stage, the drug was administered through and intravenous injection (20 μg/kg, daily, 1 month) and then through drinking water (3 mg/L, daily, 1 month). Amount of water intake was measured daily.\nHistology and demyelination scoring Myelination in rat brains was analyzed by staining with Luxol fast blue (LFB) dye. Scoring analysis method was performed as described previously^15. Microhemorrhages in rat brains were stained with Prussian blue dye and analyzed as described previously^15. Congo red staining was performed on the human brains as previously^11 described.\nImmunohistochemistry. Formalin fixed, paraffin embedded brain and pancreas tissues from humans, ADHIP, AD, WT, and AD-AKO rats were used. Tissues were processed as previously described^11,14,15,27. After tissue rehydration, the endogenous peroxidase was quenched in 3% H2O2 in methanol for 30 minutes. For amylin and Aβ antigen retrieval, sections were treated with 100% formic acid for 5 minutes, followed by 0.5% pepsin digestion in 5 mM HCl for 20 minutes at 37° C. To retrieve intra-neuronal amylin antigen (rat brains) as well as other antigens, tissue sections were heated in citrate buffer for 30 minutes. Non-specific antibody binding was blocked by 15% horse serum for 1 hour at room temperature (RT). Primary antibodies against amylin, human Aβ, Iba1, CD68 or myelin basic protein (MBP) was incubated on slides overnight at 4° C. Sections were then washed and incubated with secondary antibodies. Signal was developed with DAB or AEC peroxidase substrate. For co-staining with two antibodies, after the signal was developed for the first antibody, sections were then rinsed in water. Non-specific antibody binding was blocked with 10% normal goat serum, and the sections were incubated with the second primary antibody overnight at 4° C. Sections were then washed and incubated with AP-conjugated secondary antibody, and developed with StayGreen/AP chromogen substrate. Sections were mounted with aqueous mounting medium. The specificity of the amylin antibody in both human and rat brain tissues was established in previous studies^11,14,15,27.\nImaging analysis Wide-field images of stained tissue sections were generated by stitching images obtained from the 10× objective lens (Nikon NIS-Element Software). Higher magnification images for specific tissue area were obtained using the 40× objective lens. The immunoreactivity signal for each antibody was analyzed by ImageJ. Clearly defined-signal pixels were selected to establish the RGB profile of the color of interest. The threshold for each color signal was adjusted to reduce background noise. The established RGB profile and threshold were applied to a Macro script command, using Color Deconvolution plugin in ImageJ. The staining area was calculated using the following equation: […]"}, "[4]": {"test_system": "ADHIP rats", "assay": "Behavior testing of sEHi-treated ADHIP rats (composite z-score)", "type": "in vivo, rat", "settings": "late stage (>16 months old) and early stage (12 months old) cohorts, treated vs untreated", "description": "Pharmacological treatment on animals To increase plasma eicosanoids levels, the animals were treated with TPPU (1-Trifluoromethoxyphenyl-3-(1-propionylpiperidin-4-yl) urea, N-[1-(1-Oxopropyl)-4-piperidinyl]-N′-[4-(trifluoromethoxy)phenyl]-urea), a soluble epoxide hydrolase inhibitor (sEHi) (HY-101294, MedChem Express). […] 12 months old (n=5; early-stage) and 16 months old (n=6; late stage) animals were subjected to treatment with sEHi. For treatment at early-stage, the drug was administered through drinking water (3 mg/L, daily) and intravenous injection (20 μg/kg, once a week) to ensure equal intake for each animal. […] Amount of water intake was measured daily.\nBehavior testing Forelimb use test/Cylinder test, inclined plane, hind limb clasping test. […] Animal forelimb deficit was evaluated by forelimb-to-wall contact time in cylinder test. […] Abnormalities in the animal hind limbs were assessed by scoring the severity of hind limb clasping.\nRotarod assessment Motor coordination and balance were tested by the rotarod (Rotamex 5, Columbus Instrument, OH) test^27. […] The remaining read-outs were averaged, and a group average was calculated for each genotype. […]\nMorris Water Maze Spatial learning and long-term memory retention were tested in a 1.5 m diameter Morris Water Maze, as previously described^15. […] Trials were recorded by EthoVision XT software (Noldus, VA). […]"}, "[5]": {"settings": "listed as inhibitor of soluble epoxide hydrolase (sEH)"}}, "data": [{"compound": "CCC(=O)N1CCC(NC(=O)Nc2ccc(OC(F)(F)F)cc2)CC1", "note": "[sEHi, 1-(1-propanoylpiperidin-4-yl)-3-[4-(trifluoromethoxy)phenyl]urea]", "values": [{"measurement": "level of circulating amylin", "setting": "[1]", "result": "lower the level of circulating amylin"}, {"measurement": "brain accumulation of hypoxia markers", "setting": "[2]", "result": "lowered brain accumulation of hypoxia markers"}, {"measurement": "extent of axonal degeneration", "setting": "[3]", "result": "ameliorated"}, {"measurement": "extent of axonal degeneration", "setting": "[3]; [5]", "result": "reduced"}, {"measurement": "number of brain microhemorrhages", "setting": "[3]; Prussian blue", "result": "reduced"}, {"measurement": "amylin deposition in brain capillaries", "setting": "[3]", "result": "reduced capillary amylin deposition"}, {"measurement": "amylin deposition in brain capillaries", "setting": "[3]; [5]", "result": "reduced amylin deposition in brain capillaries"}, {"measurement": "behavior deficits", "setting": "[4]", "result": "attenuation of functional decline"}, {"measurement": "behavior deficits", "setting": "[4]; [5]", "result": "reduced behavior deficits"}]}]}
